Experimental data published in PMC7076710, “Synthesis, Identification, and Structure–Activity Relationship Analysis of GATA4 and NKX2-5 Protein–Protein Interaction Modulators” (Journal of Medicinal Chemistry, 2019).
Read-outs that look alike come from different tables or passages of the source. One block for each molecule: values may come before it.

Experiments:
Assay type in all cases: cell-based
[1] = biological target: T1, GATA4–NKX2-5 transcriptional synergy (Mus musculus, UniProt P42582+Q08369); test: GATA4–NKX2-5 transcriptional synergy luciferase reporter assay (3xNKE reporter, COS-1 cells)
T1 construct: expressed in transfected cells; host or cells: COS-1
T1 sequence (Q08369 whole entry): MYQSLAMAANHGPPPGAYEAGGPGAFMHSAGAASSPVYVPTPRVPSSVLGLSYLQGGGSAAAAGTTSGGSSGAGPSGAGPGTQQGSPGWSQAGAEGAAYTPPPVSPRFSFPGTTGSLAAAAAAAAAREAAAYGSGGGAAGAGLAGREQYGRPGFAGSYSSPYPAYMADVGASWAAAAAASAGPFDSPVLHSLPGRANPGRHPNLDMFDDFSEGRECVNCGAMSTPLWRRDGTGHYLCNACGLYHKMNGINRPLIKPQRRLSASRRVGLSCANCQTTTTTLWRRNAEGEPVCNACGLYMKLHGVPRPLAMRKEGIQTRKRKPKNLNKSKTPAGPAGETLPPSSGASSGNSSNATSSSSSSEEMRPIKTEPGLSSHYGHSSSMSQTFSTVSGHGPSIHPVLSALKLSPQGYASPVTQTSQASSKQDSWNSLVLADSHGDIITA
T1 sequence (P42582 whole entry): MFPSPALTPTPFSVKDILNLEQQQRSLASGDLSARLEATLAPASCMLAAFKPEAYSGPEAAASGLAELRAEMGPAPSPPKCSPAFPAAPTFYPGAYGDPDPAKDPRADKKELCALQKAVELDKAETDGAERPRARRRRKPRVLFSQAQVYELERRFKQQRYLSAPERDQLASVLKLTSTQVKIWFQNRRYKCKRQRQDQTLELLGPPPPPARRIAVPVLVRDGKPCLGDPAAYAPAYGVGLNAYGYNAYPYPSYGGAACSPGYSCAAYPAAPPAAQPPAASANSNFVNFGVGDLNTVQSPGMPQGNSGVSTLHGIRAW

[2] = biological target: T2, NKX2-5 transcriptional activity (Mus musculus, UniProt P42582); test: NKX2-5 luciferase reporter assay (3xNKE reporter, COS-1 cells); settings: for activity at 10 µM: read-out: NKX.10µM; for activity at 3 µM: read-out: NKX.3µM
T2 construct: expressed in transfected cells; host or cells: COS-1
T2 sequence (P42582 whole entry): as above
Method: (§1) To screen compounds for the GATA4–NKX2-5 interaction, we have developed a luciferase reporter assay based on their property to activate gene transcription synergistically through the NKX2-5 binding site on DNA.[28] In this assay, we transfected mammalian COS-1 cells with protein expression vectors for GATA4 and NKX2-5 proteins together with artificial luciferase reporter vector containing three high affinity binding sites for NKX2-5 (NKE). […] All 257 compounds were tested in two concentrations, 3 and 10 μM. Compounds either inhibited, enhanced, or had no effect on the GATA4–NKX2-5 transcriptional synergy. To investigate the selectivity of the active compounds, we tested their effects on NKX2-5 transcriptional activity by using the same luciferase reporter vector as in transcriptional synergy assay with three NKE sites (Figure 3B). Furthermore, we used GATA luciferase reporter assay to examine if compounds have an effect on GATA4 transcriptional activity. In this assay, we cotransfected the cells with a GATA4 protein expression vector and a reporter vector with tandem GATA4 binding sites (Figure 3C). Previously we have reported that compound 1 inhibited the GATA4–NKX2-5 transcriptional synergy at micromolar concentrations (IC50 = 3 μM).[29]
(§2) The plasmids expressing mouse GATA4 protein, pMT2-GATA4, and empty pMT2 were gifts from D. B. Wilson (Department of Pediatrics, St. Louis Children’s Hospital, St. Louis, MO).[44] The plasmids expressing mouse NKX2-5 protein, pMT2-NKX2-5, have been described earlier.[28] The luciferase reporter plasmid used in GATA4–NKX2-5 transcriptional synergy assay and NKX transcriptional assay, pGL3-3xHA, contains three high affinity binding sites for NKX2-5.[28] The luciferase reporter plasmid used in GATA transcriptional assay, NP-112, contains tandem GATA-sites and minimal promoter of rat brain natriuretic peptide (BNP) gene.[45] The pGL3-BNP luciferase reporter containing −534/+4 bp rat BNP proximal promoter described previously was used in hypertrophy assay.[46]
(§3) The primary screening assay of compounds’ effect on GATA4–NKX2-5 transcriptional synergy and COS-1 cell culturing has been described earlier.[33] […] (Kinnunen et al., unpublished observation). Briefly, COS-1 cells were seeded at 14 000 cells/well in Isoplate-96 microplates (PerkinElmer, Turku, Finland) and grown overnight. The cells were transfected with the luciferase reporter plasmid pGL3-3xHA 100 ng/well and equal amounts of expression plasmids pMT2-GATA4 and pMT2-NKX2-5 total 50 ng/well. To verify the synergistic effect, the cells were transfected with pMT2-GATA4 or pMT2-NKX2-5 25 ng/well, and the total DNA concentration was adjusted to 50 ng/well with empty pMT2 plasmid. In NKX2-5 and GATA4 luciferase reporter assays, the cells were transfected with reporter plasmid pGL3-3xHA or NP-112 (100 ng/well) and expression plasmid pMT2-NKX2-5 or pMT2-GATA4 (25 ng/well). The ratio of DNA/transfection reagent (Fugene 6, Promega) was 1:3 in all assays. The transfections were performed in serum and antibiotics free media for 6 h. The cells were treated with compounds or vehicle (0.1% DMSO) for 24 h, and the luminescence was measured using neolite Reporter Gene Assay System (PerkinElmer, Turku, Finland) and Victor2 plate reader (PerkinElmer, Turku, Finland).
(§4) Raw luciferase data were analyzed in Excel, and clear outliers were removed from triplicates by using the Grubb’s test. Data analysis was performed using R.[49] The luciferase data were first normalized on the basis of the combined mean value of controls. For data visualization and creation of figures, the following R packages were used: ggplot2, cowplot, RColorBrewer, and pheatmap. The heatmaps of the toxicity data were produced with GraphPad Prism 7.00 (GraphPad Software, La Jolla, CA). Statistical significance of luciferase reporter assay data was evaluated by randomized block analysis of variance followed by Dunnett’s post hoc test. […]

[3] = biological target: T3, GATA4 transcriptional activity (Mus musculus, UniProt Q08369); test: GATA4 luciferase reporter assay (tandem GATA-site reporter, COS-1 cells)
T3 construct: expressed in transfected cells; host or cells: COS-1
T3 sequence (Q08369 whole entry): as the sequence (Q08369 whole entry) above
Method: as §1, §2, §3, §4

COS-1 cells [4] = test: LDH assay (necrosis)
Text: (§5) To investigate the toxicity as a potential cause of decreased or increased activity in luciferase reporter gene assays, we tested a set of 40 active compounds in the COS-1 cell line used for the luciferase assays. Concentration-dependent toxic effects were investigated using the lactate dehydrogenase (LDH) assay to detect necrosis and the 3-(4,5-dimethylthiazol-2-yl)-2,5-diphenyltetrazolium bromide (MTT) assay as a measure of cell viability. […] For the data analysis, compounds were classified as toxic (Figures 5 and 7) if they induced a >10% decrease in cell viability in the MTT assay at the concentration of 10 μM. The most toxic compounds (35a, 35d, 54, 58, and 63–65) in the MTT assay all contained a phenyl substituent in the southern part ring, while the ortho-nitrophenyl-derivative 39g and the phenyl-substituted thiophene 47t were nontoxic. Higher flexibility in the central parts of the ethers (35a, 35d) and N-acylated amines (58, 64) might contribute to their toxicity, because less rigid compounds are more likely to have affinity to various biological targets. Such interactions can cause toxicity. To confirm and validate the results from MTT assays, we tested three nontoxic (2, 47s, and 72) and three toxic (1, 35a, and 58) compounds in a cell viability assay measuring intracellular ATP content.
(§6) Figure 5 Effects of selected compounds on COS-1 cell viability. (A) Compound-induced necrosis was quantified with the LDH assay after a 24-h compound exposure. The data are presented as cytotoxicity percentage (% of maximal LDH release). (B) Cell viability was analyzed with the MTT assay after a 24-h compound exposure. (A,B) The data are means from 2–3 independent experiments with 3 replicate wells in each and are presented as % of control (vehicle-treated cells). The compounds have been grouped on the basis of the structure of the central part: a, amide; b, ether; c, N-acylated amine; d, amine; and e, imine. (C) The effects of selected compounds on cell viability as determined by ATP content after a 24-h compound exposure. The data are mean + SEM from three independent experiments and are presented as % of vehicle-treated cells.
(§7) For toxicity screening, COS-1 cells were cultured in DMEM (Sigma-Aldrich, Steinheim, Germany) supplemented with 10% fetal bovine serum, 100 U/mL penicillin, and 100 μg/mL streptomycin (all from Gibco, Thermo Scientific) at 37 °C with 5% CO2. The cells were plated on 96-well plates at 10 000 cells/well and exposed to test compounds at a concentration range of 1–30 μM on the following day. After a 24-h compound treatment, lactate dehydrogenase (LDH) and 3-(4,5-dimethylthiazol-2-yl)-2,5-diphenyltetrazolium bromide (MTT) assays were carried out as described previously.[48] Briefly, LDH activity was determined from 50 μL samples of cell culture medium, to which 50 μL of substrate solution [1.3 mM β-nicotinamide-adenine dinucleotide, 660 μM iodonitrotetrazolium, 54 mM L(+)-lactic acid, and 280 μM phenazine methosulfate in 0.2 M Tris-HCl, pH 8.2, all from Sigma-Aldrich] was added, and the plate was incubated for 30 min at room temperature. The reaction was stopped with acetic acid (final concentration 333 mM), and absorbance was measured at 490 nm. The absorbance values of the samples were normalized to maximal LDH release and spontaneous LDH release determined on the same plate. Mitochondrial metabolic activity was quantified by incubating the cells with 0.5 mg/mL MTT (from Sigma-Aldrich) for 2 h at 37 °C with 5% CO2, whereafter culture medium was removed and formazan crystals were dissolved in DMSO. The absorbance was measured at 550 nm, and absorbance at 650 nm was subtracted as background.

COS-1 cells [5] = test: MTT assay (cell viability)
Text: as §5, §6, §7

[6] = COS-1, 3 µM, luciferase reporter activity, % of control
[7] = COS-1, 10 µM, luciferase reporter activity, % of control
[8] = COS-1, compound 3 µM, luciferase reporter activity, spread in separate STDEV column
[9] = COS-1, compound 10 µM, luciferase reporter activity, spread in separate STDEV column
[10] = 3 µM compound, GATA4–NKX2-5 transcriptional synergy reporter, COS-1 cells
[11] = 10 µM compound, GATA4–NKX2-5 transcriptional synergy reporter, COS-1 cells
[12] = 3 µM compound, GATA4 luciferase reporter, COS-1 cells
[13] = 10 µM compound, GATA4 luciferase reporter, COS-1 cells
[14] = 3 µM compound, NKX2-5 luciferase reporter, COS-1 cells
[15] = COS-1, compound at 3 µM, luciferase reporter activity, % of control

- activity at 3 µM [1, 8]: 105%
- activity at 3 µM [3, 8]: 119%
- effect on NKX2-5 transcriptional activity (in words) [2]: did not affect
Compound: CCN(CC)c1ccc(NC(=O)c2cc(C)sc2-c2cc(C)on2)cc1 [Compound 47l]

- activity at 3 µM [1, 8]: 69%
- activity at 10 µM [1, 9]: 72.5%
- activity at 3 µM [3, 8]: 96.8%
- activity at 10 µM [3, 9]: 85%
- activity at 3 µM [2, 8]: 95.3%
- activity at 10 µM [2, 9]: 79%
Compound: CN(C)c1ccc(CNc2cc(-c3ccccc3)nn2-c2ccccc2)cc1 [SI94]

- activity at 3 µM [1, 6]: 104%
- activity at 10 µM [1, 7]: 90.6%
- activity at 3 µM [3, 6]: 96.5%
- activity at 10 µM [3, 7]: 110%
- activity at 3 µM [2, 6]: 103%
- activity at 10 µM [2, 7]: 95.1%
Compound: Cc1onc(-c2ccccc2)c1COCc1ccc2ccccc2c1 [SI48]

- activity at 3 µM [1, 8]: 116%
- activity at 3 µM [2, 8]: 116%
- activity at 10 µM [2, 9]: 114%
Compound: CCN(CC)c1ccc(NC(=O)c2cn(C)cc2-c2cc(C)on2)cc1 [Compound 47m]

- activity at 3 µM [1, 8]: 110%
- activity at 3 µM [2, 8]: 108%
Compound: CCN(CC)c1ccc(NC(=O)c2cn(C)nc2-c2cc(C)on2)cc1 [Compound 47f]

Further lines, the molecule ahead of its results:

Compound: CCN(CC)c1ccc(N(C)C(=O)c2c(-c3ccccc3)noc2C)cc1 [Compound 25a]
- activity at 3 µM [1, 6]: 78.1%
- activity at 10 µM [2, 7]: 101%

Compound: CCN(CC)c1ccc(NC(=O)c2c(-c3ccc(C)s3)noc2C)cc1 [Compound 39p]
- activity at 10 µM [1, 9]: 102%
- activity at 3 µM [3, 8]: 85.9%
- activity at 3 µM [2, 8]: 83.8%

Compound: CCN(CC)c1ccc(NC(=O)c2c(-c3cc(C)on3)noc2C)cc1 [Compound 39o]
- activity at 3 µM [1, 8]: 97.1%
- activity at 10 µM [1, 9]: 102%
- activity at 3 µM [3, 8]: 89.2%
- activity at 10 µM [3, 9]: 101%
- activity at 3 µM [2, 8]: 101%

Compound: CCc1noc(C)c1C(=O)Nc1ccc(N(CC)CC)cc1 [Compound 39b]
- activity at 3 µM [1, 10]: 97.5%
- activity at 10 µM [1, 11]: 104%
- activity at 3 µM [3, 12]: 120%
- activity at 10 µM [3, 13]: 143%
- activity at 3 µM [2, 14]: 124%
- activity at 10 µM ([2]; 10 µM compound, NKX2-5 luciferase reporter, COS-1 cells): 164%

Compound: CCC(=O)c1ccc(OCc2c(-c3ccccc3)noc2C)cc1 [Compound 34a, 1-[4-[(5-Methyl-3-phenylisoxazol-4-yl)methoxy]phenyl]propan-1-one]
- activity at 3 µM [1, 6]: 90.9%
- activity at 3 µM [3, 6]: 106%
- activity at 3 µM [2, 6]: 111%

Compound: Cc1onc(-c2ccccc2)c1C(=O)Nc1ccc(-c2ccccc2)cc1 [Compound 4f]
- activity at 3 µM [1, 6]: 72.7%
- activity at 10 µM [1, 7]: 112%
- activity at 3 µM [3, 6]: 102%
- activity at 10 µM [3, 7]: 114%
- activity at 3 µM [2, 6]: 91%

Compound: CCN(CC)c1ccc(NC(=O)c2c(-c3ccccc3Cl)noc2C)cc1 [Compound 39k]
- activity at 3 µM [1, 15]: 107%
- effect on GATA4 transcriptional activity (in words) ([3]; 10 µM): slightly increased
- activity at 3 µM [3, 15]: 86.1%
- activity at 10 µM ([3]; COS-1, compound at 10 µM, luciferase reporter activity, % of control): 112%
- effect on NKX2-5 transcriptional activity (in words) [2]: did not affect
- activity at 3 µM [2, 15]: 157%

Compound: Cc1onc(-c2ccccc2)c1C(=O)Nc1ccc(C(=O)OCCCCC#N)cc1 [Compound 10c]
- activity at 3 µM [1, 8]: 101%
- activity at 3 µM [3, 8]: 109%
- activity at 10 µM [3, 9]: 102%
- activity at 3 µM [2, 8]: 102%
- activity at 10 µM [2, 9]: 147%

Compound: CCN(CC)c1ccc(NC(=O)c2c(-n3cccc3)sc(C)c2C)cc1 [Compound 56]
- activity at 3 µM [1, 10]: 93.8%
- activity at 3 µM [2, 14]: 102%

Compound: Cc1cc(-c2onc(C)c2C(=O)Nc2ccc3oc(-c4ccccc4)cc(=O)c3c2)no1 [Compound 73]
- activity at 3 µM [1, 10]: 107%
- activity at 10 µM [1, 11]: 114%
- activity at 3 µM [3, 12]: 127%
- activity at 10 µM [3, 13]: 123%

Compound: CCN(CC)c1ccc(NC(=O)c2c(-c3cccc([N+](=O)[O-])c3)noc2C)cc1 [Compound 39g]
- LDH.1µM (COS-1 cells [4]; 1 µM): 1.8
- LDH.3µM (COS-1 cells [4]; 3 µM): 1.19
- LDH.10µM (COS-1 cells [4]; 10 µM): -0.41
- LDH.30µM (COS-1 cells [4]; 30 µM): -0.68
- activity at 3 µM ([1]; COS-1, 3 µM, luciferase reporter activity relative to control): 93.4%
- MTT.1µM (COS-1 cells [5]; 1 µM, cell viability): 105.86
- MTT.3µM (COS-1 cells [5]; 3 µM, cell viability): 108.44
- MTT.10µM (COS-1 cells [5]; 10 µM, cell viability): 106.4
- MTT.30µM (COS-1 cells [5]; 30 µM, cell viability): 104.14
- toxicity class in the MTT assay (COS-1 cells [5]; 24-h exposure, classified at 10 μM): nontoxic (nontoxic compounds (cell viability >90%))
